Data taken from patent US11325938B2, “CD73 inhibitors” (ORIC Pharmaceuticals, Inc., priority 2018, dated 2022).

Target: CD73 (Homo sapiens (Human), UniProt P21589)
Experiment: Biochemical assay: inhibition of CD73 activity (AMP hydrolysis, Malachite Green readout)
Settings: CD73 0.3208 nM, AMP 15 μM, 25 mM Tris-HCl pH 7.4, RT, absorbance 620 nm
Description: Example A1: Biochemical Assay
Assay Reaction Conditions
• Assay Volume: 70 μl • Reaction Volume: 50 μl • CD73: 0.3208 nM • AMP: 15 μM • Assay Buffer: 25 mM Tris-HCL, pH 7.4, 0.01% Brij-35, 0.01% BSA, 5 mM MgCl2 Assay Procedure:
Made dose titration of testing compounds in assay buffer, 10 points ½ log titrations in duplicates starting at 100 μM.
Added 25 μl of CD73 to each well for a final concentration of 320 pM.
Incubated at RT for 15 min.
Added 25 μl of AMP to each well for a final concentration of 15 μM.
Incubated at RT for 10 min.
Added 10 μl of Malachite Green Reagent A, incubate at RT for 10 min.
Added 10 of Malachite Green Reagent B, incubate at RT for 45 min.
Read the Absorbance on Envision plate reader using excitation filter: Cy5 […].
The ability of the compounds disclosed herein to inhibit CD73 activity was quantified and the respective IC50 values were determined. Table 2 provides the biochemical IC50 values of compounds disclosed herein.

CD73, sequence (P21589 27-574): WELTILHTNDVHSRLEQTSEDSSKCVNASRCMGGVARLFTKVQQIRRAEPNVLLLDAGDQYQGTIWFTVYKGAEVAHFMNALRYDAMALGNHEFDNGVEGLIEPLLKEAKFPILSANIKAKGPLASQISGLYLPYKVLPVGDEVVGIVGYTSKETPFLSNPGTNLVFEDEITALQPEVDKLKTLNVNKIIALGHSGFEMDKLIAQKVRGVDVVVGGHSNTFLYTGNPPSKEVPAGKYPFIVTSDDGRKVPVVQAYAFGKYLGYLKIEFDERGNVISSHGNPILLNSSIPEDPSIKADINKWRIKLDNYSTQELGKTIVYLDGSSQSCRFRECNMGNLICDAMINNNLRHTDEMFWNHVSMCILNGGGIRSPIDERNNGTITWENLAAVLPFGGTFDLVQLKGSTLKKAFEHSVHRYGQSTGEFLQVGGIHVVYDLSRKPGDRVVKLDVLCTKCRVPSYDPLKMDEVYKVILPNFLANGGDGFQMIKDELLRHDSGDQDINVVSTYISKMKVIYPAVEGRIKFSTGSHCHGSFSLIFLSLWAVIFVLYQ

Row | IC50 | SMILES
1 | ≤ 100 nM | CNc1nc(Cl)nc2c1cnn2[C@@H]1O[C@H](COC(CO)P(=O)(O)O)[C@@H](O)[C@H]1O (stereo partly drawn) [Example 29, (1-(((2R,3S,4R,5R)-5-(6-chloro-4-(methylamino)-1H-pyrazolo[3,4-d]pyrimidin-1-yl)-3,4-dihydroxytetrahydrofuran-2-yl)methoxy)-2-hydroxyethyl)phosphonic acid]
2 | ≤ 100 nM | CC(CO)(OC[C@H]1O[C@@H](n2ncc3c(N[C@@H]4CCc5ccccc54)nc(Cl)nc32)[C@H](O)[C@@H]1O)P(=O)(O)O (stereo partly drawn) [Example 61, (2-(((2R,3S,4R,5R)-5-(6-chloro-4-(((R)-2,3-dihydro-1H-inden-1-yl)amino)-1H-pyrazolo[3,4-d]pyrimidin-1-yl)-3,4-dihydroxytetrahydrofuran-2-yl)methoxy)-1-hydroxypropan-2-yl)phosphonic acid]
3 | ≤ 100 nM | CC1(Nc2nc(Cl)nc3c2cnn3[C@@H]2O[C@H](CO[C@](C)(CO)P(=O)(O)O)[C@@H](O)[C@H]2O)CCCC1 [Example 106, ((S)-2-(((2R,3S,4R,5R)-5-(6-chloro-4-((1-methylcyclopentyl)amino)-1H-pyrazolo[3,4-d]pyrimidin-1-yl)-3,4-dihydroxytetrahydrofuran-2-yl)methoxy)-1-hydroxypropan-2-yl)phosphonic acid]
4 | ≤ 100 nM | C[C@@](CO)(OC[C@H]1O[C@@H](n2ncc3c(NC4CCCC4)cc(Cl)nc32)[C@H](O)[C@@H]1O)P(=O)(O)O (racemic) [Example 194, rac-((R)-2-(((2R,3S,4R,5R)-5-(6-chloro-4-(cyclopentylamino)-1H-pyrazolo[3,4-b]pyridin-1-yl)-3,4-dihydroxytetrahydrofuran-2-yl)methoxy)-1-hydroxypropan-2-yl)phosphonic acid]
5 | ≤ 100 nM | O=P(O)(O)[C@@](CO)(COCc1ccccc1)OC[C@H]1O[C@@H](n2ncc3c(NC4CCCC4)nc(Cl)nc32)[C@H](O)[C@@H]1O (racemic) [Example 180, rac-((R)-1-(benzyloxy)-2-(((2S,3R,4S,5S)-5-(6-chloro-4-(cyclopentyalmino)-1H-pyrazolo[3,4-d]pyrimidin-1-yl)-3,4-dihydroxytetrahydrofuran-2-yl)methoxy)-3-hydroxypropan-2-yl)phosphonic acid]
6 | ≤ 100 nM | O=P(O)(O)C(CO)(CO)OC[C@H]1O[C@@H](n2ncc3c(NC4CCC4)nc(Cl)nc32)[C@H](O)[C@@H]1O [Example 116, (2-(((2R,3S,4R,5R)-5-(6-chloro-4-(cyclobutylamino)-1H-pyrazolo[3,4-d]pyrimidin-1-yl)-3,4-dihydroxytetrahydrofuran-2-yl)methoxy)-1,3-dihydroxypropan-2-yl)phosphonic acid]
7 | ≤ 100 nM | COCC(C)(OC[C@H]1O[C@@H](n2ncc3c(NCC4CC4)nc(Cl)nc32)[C@H](O)[C@@H]1O)P(=O)(O)O (stereo partly drawn) [Example 79, (2-(((2R,3S,4R,5R)-5-(6-chloro-4-((cyclopropylmethyl)amino)-1H-pyrazolo[3,4-d]pyrimidin-1-yl)-3,4-dihydroxytetrahydrofuran-2-yl)methoxy)-1-methoxypropan-2-yl)phosphonic acid]
8 | ≤ 100 nM | C[C@@](CO)(OC[C@H]1O[C@@H](n2nnc3c(NC4CCCC4)cc(Cl)nc32)[C@H](O)[C@@H]1O)P(=O)(O)O [Example 139, ((R)-2-(((2R,3S,4R,5R)-5-(5-chloro-7-(cyclopentylamino)-3H-[1,2,3]triazolo[4,5-b]pyridin-3-yl)-3,4-dihydroxytetrahydrofuran-2-yl)methoxy)-1-hydroxypropan-2-yl)phosphonic acid]
9 | ≤ 100 nM | COC[C@@](Cc1nn[nH]n1)(OC[C@H]1O[C@@H](n2ncc3c(NC4CCCC4)nc(Cl)nc32)[C@H](O)[C@@H]1O)P(=O)(O)O (racemic) [Example 212, rac-((R)-2-(((2S,3R,4S,5S)-5-(6-chloro-4-(cyclopentylamino)-1H-pyrazolo[3,4-d]pyrimidin-1-yl)-3,4-dihydroxytetrahydrofuran-2-yl)methoxy)-1-methoxy-3-(2H-tetrazol-5-yl)propan-2-yl)phosphonic acid]
10 | ≤ 100 nM | O=P(O)(O)C(CO)(CO)OC[C@H]1O[C@@H](n2ncc3c(N[C@@H]4CCc5ccccc54)nc(OCCO)nc32)[C@H](O)[C@@H]1O [Example 100, (2-(((2R,3S,4R,5R)-5-(4-(((R)-2,3-dihydro-1H-inden-1-yl)amino)-6-(2-hydroxyethoxy)-1H-pyrazolo[3,4-d]pyrimidin-1-yl)-3,4-dihydroxytetrahydrofuran-2-yl)methoxy)-1,3-dihydroxypropan-2-yl)phosphonic acid]
11 | ≤ 100 nM | COCC(C)(OC[C@H]1O[C@@H](n2cnc3c(NC4CCCC4)nc(Cl)nc32)[C@H](O)[C@@H]1O)P(=O)(O)O (stereo partly drawn) [Example 158, (2-(((2R,3S,4R,5R)-5-(2-chloro-6-(cyclopentylamino)-9H-purin-9-yl)-3,4-dihydroxytetrahydrofuran-2-yl)methoxy)-1-methoxypropan-2-yl)phosphonic acid]
12 | ≤ 100 nM | O=C1CC(OC[C@H]2O[C@@H](n3ncc4c(NC5CCCC5)nc(Cl)nc43)[C@H](O)[C@@H]2O)(P(=O)(O)O)CO1 (mixture of isomers) [Example 186, rac-(3-(((2R,3S,4R,5R)-5-(6-chloro-4-(cyclopentylamino)-1H-pyrazolo[3,4-d]pyrimidin-1-yl)-3,4-dihydroxytetrahydrofuran-2-yl)methoxy)-5-oxotetrahydrofuran-3-yl)phosphonic acid]
13 | ≤ 100 nM | O=P(O)(O)C(CO)(CO)OC[C@H]1O[C@@H](n2ncc3c(NC4CCC45CCC5)nc(Cl)nc32)[C@H](O)[C@@H]1O (mixture of isomers) [Example 204, rac-(2-(((2R,3S,4R,5R)-5-(6-chloro-4-(spiro[3.3]heptan-1-ylamino)-1H-pyrazolo[3,4-d]pyrimidin-1-yl)-3,4-dihydroxytetrahydrofuran-2-yl)methoxy)-1,3-dihydroxypropoan-2-yl)phosphonic acid]
14 | ≤ 100 nM | C[C@@H](OC[C@H]1O[C@@H](n2ncc3c(NC4CCCC4)nc(Cl)nc32)[C@H](O)[C@@H]1O)P(=O)(O)O [Example 32, ((S)-1-(((2R,3S,4R,5R)-5-(6-chloro-4-(cyclopentylamino)-1H-pyrazolo[3,4-d]pyrimidin-1-yl)-3,4-dihydroxytetrahydrofuran-2-yl)methoxy)ehtyl)phosphonic acid]
15 | ≤ 100 nM | CC(CO)(OC[C@H]1O[C@@H](n2ncc3c(NC4CCCC4)cc(Cl)nc32)[C@H](O)[C@@H]1O)P(=O)(O)O (stereo partly drawn) [Example 152, (2-(((2R,3S,4R,5R)-5-(6-chloro-4-(cyclopentylamino)-1H-pyrazolo[3,4-b]pyridin-1-yl)-3,4-dihydroxytetrahydrofuran-2-yl)methoxy)-1-hydroxypropan-2-yl)phosphonic acid]
16 | ≤ 100 nM | CC(C)(O)COc1nc(NC2CCCC2)c2cnn([C@@H]3O[C@H](COC(C)(CO)P(=O)(O)O)[C@@H](O)[C@H]3O)c2n1 (stereo partly drawn) [Example 146, (2-(((2R,3S,4R,5R)-5-(4-(cyclopentylamino)-6-(2-hydroxy-2-methylpropoxy)-1H-pyrazolo[3,4-d]pyrimidin-1-yl)-3,4-dihydroxytetrahydrofuran-2-yl)methoxy)-1-hydroxypropan-2-yl)phosphonic acid]
17 | ≤ 100 nM | NC(=O)OC[C@](CO)(OC[C@H]1O[C@@H](n2ncc3c(NC4CCCC4)nc(Cl)nc32)[C@H](O)[C@@H]1O)P(=O)(O)O (racemic) [Example 216, rac-((R)-1-(carbamoyloxy)-2-(((2R,3S,4R,5R)-5-(6-chloro-4-(cyclopentylamino)-1H-pyrazolo[3,4-d]pyrimidin-1-yl)-3,4-dihydroxytetrahydrofuran-2-yl)methoxy)-3-hydroxypropan-2-yl)phosphonic acid]
18 | ≤ 100 nM | C[C@](CO)(OC[C@H]1O[C@@H](n2ncc3c(NC4CCCC4)nc(OCCO)nc32)[C@H](O)[C@@H]1O)P(=O)(O)O [Example 147, ((S)-2-(((2R,3S,4R,5R)-5-(4-(cyclopentylamino)-6-(2-hydroxyethoxy)-1H-pyrazolo[3,4-d]pyrimidin-1-yl)-3,4-dihydroxytetrahydrofuran-2-yl)methoxy)-1-hydroxypropan-2-yl)phosphonic acid]
19 | 100 to 1000 nM | O=P(O)(O)C(OC[C@H]1O[C@@H](n2ncc3c(NC4CCCC4)nc(Cl)nc32)[C@H](O)[C@@H]1O)C(F)(F)F (stereo partly drawn) [Example 80, (1-(((2R,3S,4R,5R)-5-(6-chloro-4-(cyclopentylamino)-1H-pyrazolo[3,4-d]pyrimidin-1-yl)-3,4-dihydroxytetrahydrofuran-2-yl)methoxy)-2,2,2-trifluoroethyl)phosphonic acid]
20 | ≤ 100 nM | CC(CO)(P(=O)(O)O)S(=O)(=O)C[C@H]1O[C@@H](n2ncc3c(NC4CCCC4)nc(Cl)nc32)[C@H](O)[C@@H]1O (stereo partly drawn) [Example 8, (2-((((2S,3S,4R,5R)-5-(6-Chloro-4-(cyclopentylamino)-1H-pyrazolo[3,4-d]pyrimidin-1-yl)-3,4-dihydroxytetrahydrofuran-2-yl)methyl)sulfonyl)-1-hydroxypropan-2-yl)phosphonic acid]
21 | ≤ 100 nM | CC(CO)(OC[C@H]1O[C@@H](n2ncc3c(N[C@@H]4CCC45CCC5)nc(Cl)nc32)[C@H](O)[C@@H]1O)P(=O)(O)O (stereo partly drawn) [Example 135, (2-(((2R,3S,4R,5R)-5-(6-chloro-4-(((R)-spiro[3.3]heptan-1-yl)amino)-1H-pyrazolo[3,4-d]pyrimidin-1-yl)-3,4-dihydroxytetrahydrofuran-2-yl)methoxy)-1-hydroxypropan-2-yl)phosphonic acid]
